According to the NIST ThermoML archive (doi:10.1016/j.tca.2015.08.011):

Experiments:
[1] = 101.33 kPa, Crystal, Laser pulse heating
[2] = molar heat capacity at constant pressure; settings: 101.33 kPa, Crystal, Small sample (50 mg) DSC

[Ce+4].[O-2].[O-2] [ceric oxide]
Settings | molar heat capacity at constant pressure, [2] [J/K/mol] | thermal conductivity, [1] [W/m/K]
298.15 K | – | 15.15
323.15 K | 57.9 | –
373.15 K | 62.1 | –
423.15 K | 65.42 | –
473.15 K | 67.99 | –
523.15 K | 69.93 | –
573.15 K | 71.34 | –
623.15 K | 72.32 | –
673.15 K | 72.96 | –
723.15 K | 73.34 | –
773.15 K | 73.53 | 6.05
823.15 K | 73.6 | –
873.15 K | 73.58 | –
923.15 K | 73.53 | –
973.15 K | 73.48 | –
1023.1 K | 73.44 | –
1073.2 K | 73.46 | –
1123.2 K | 73.51 | –
1173.2 K | 73.61 | –
1273.2 K | – | 2.7
